Where a SMILES comes first, the peptide text is derived from it.
Legend:
[1] = system: blood cell subsets (cell surface antigens); assay: In vivo/ex vivo immunophenotyping in the blood, mice treated 4 consecutive days, blood taken on day 5; design: species or system C57BL/6 mice
Protocol: C57BL.backslash.6 mice are treated with 0, 50, 100, 200, and 300 mg/kg of drug (in saline) for 4 consecutive days. Blood is taken by cardiac puncture on day 5, and the lymphocytes are isolated from spleen in the following manner:
1. Immunophenotyping (blood and spleen)
Cell immunophenotyping is performed on blood and spleen. The following cell surface antigens are analyzed:
CD4 (T helper/inducer, binds class II-restricted T cells);
CD8 (cytotoxic T cells, CTL adhesion);
MAC-1 (monocyte/macrophage);
NK (natural killer cells);
CD45 (all leukocytes, protein tyrosine phosphatase).

[2] = Toxicity in vivo; conditions: animals treated with 50, 100, 200, and 300 mg/kg
From the text: peptide #1 (SEQ. ID NO:1) appears to be non-toxic.

[3] = Stability in Human Whole Blood at 37° C., HPLC; type: in vitro ADME; design: half-life: dose or concentration left out as unconfirmed; conditions: for HPLC AREA: human whole blood 37° C.
Protocol: The procedures are the same as example 5 with the exceptions that human whole blood was substituted for rat whole blood, and that in Step 2, (blood incubation) aliquotes were taken at the following times: […]

NCCCC[C@H](N)C(=O)N[C@@H](CC(N)=O)C(=O)N1CCC[C@H]1C(=O)N[C@@H](Cc1ccc(O)cc1)C(=O)O [PEPTIDE #1, H-Lys-Asn-Pro-Tyr-OH] (H-KNPY-OH)
B cell subset, relative percentage ([1]; 50 mg/kg): 23.57 | CD4+ CD8+ cell subset, relative percentage ([1]; 50 mg/kg): 3.65 | CD4+ CD8- cell subset, relative percentage ([1]; 50 mg/kg): 27.15 | CD4+ CD11+ cell subset, relative percentage ([1]; 50 mg/kg): 0.53 | CD4+ CD11- cell subset, relative percentage ([1]; 50 mg/kg): 34.10 | CD4+ CD45+ cell subset, relative percentage ([1]; 50 mg/kg): 26.95 | CD4+ CD45- cell subset, relative percentage ([1]; 50 mg/kg): 3.80 | CD4- CD8+ cell subset, relative percentage ([1]; 50 mg/kg): 11.20 | CD4- CD8- cell subset, relative percentage ([1]; 50 mg/kg): 58.05 | CD4- CD11+ cell subset, relative percentage ([1]; 50 mg/kg): 7.67 | CD4- CD11- cell subset, relative percentage ([1]; 50 mg/kg): 57/73 | CD4- CD45+ cell subset, relative percentage ([1]; 50 mg/kg): 65.30 | CD4- CD45- cell subset, relative percentage ([1]; 50 mg/kg): 3.90 | CD8+ CD45+ cell subset, relative percentage ([1]; 50 mg/kg): 13.70 | CD8+ CD45- cell subset, relative percentage ([1]; 50 mg/kg): 0.55 | CD8- CD45+ cell subset, relative percentage ([1]; 50 mg/kg): 76.15 | CD8- CD45- cell subset, relative percentage ([1]; 50 mg/kg): 9.60 | NK+ CD3+ cell subset, relative percentage ([1]; 50 mg/kg): 7.83 | NK+ CD3- cell subset, relative percentage ([1]; 50 mg/kg): 10.47 | NK- CD3+ cell subset, relative percentage ([1]; 50 mg/kg): 41.23 | NK- CD3- cell subset, relative percentage ([1]; 50 mg/kg): 40.53 | Non B cell subset, relative percentage ([1]; 50 mg/kg): 76.40 | B cell subset, relative percentage ([1]; 100 mg/kg): 19.23 | CD4+ CD8+ cell subset, relative percentage ([1]; 100 mg/kg): 27.20 | CD4+ CD8- cell subset, relative percentage ([1]; 100 mg/kg): 28.55 | CD4+ CD11+ cell subset, relative percentage ([1]; 100 mg/kg): 0.23 | CD4+ CD11- cell subset, relative percentage ([1]; 100 mg/kg): 41.67 | CD4+ CD45+ cell subset, relative percentage ([1]; 100 mg/kg): 46.75 | CD4+ CD45- cell subset, relative percentage ([1]; 100 mg/kg): 8.90 | CD4- CD8+ cell subset, relative percentage ([1]; 100 mg/kg): 11.50 | CD4- CD8- cell subset, relative percentage ([1]; 100 mg/kg): 32.85 | CD4- CD11+ cell subset, relative percentage ([1]; 100 mg/kg): 3.00 | CD4- CD11- cell subset, relative percentage ([1]; 100 mg/kg): 55.13 | CD4- CD45+ cell subset, relative percentage ([1]; 100 mg/kg): 37.30 | CD4- CD45- cell subset, relative percentage ([1]; 100 mg/kg): 7.00 | CD8+ CD45+ cell subset, relative percentage ([1]; 100 mg/kg): 31.95 | CD8+ CD45- cell subset, relative percentage ([1]; 100 mg/kg): 6.20 | CD8- CD45+ cell subset, relative percentage ([1]; 100 mg/kg): 47.55 | CD8- CD45- cell subset, relative percentage ([1]; 100 mg/kg): 14.35 | NK+ CD3+ cell subset, relative percentage ([1]; 100 mg/kg): 2.80 | NK+ CD3- cell subset, relative percentage ([1]; 100 mg/kg): 6.50 | NK- CD3+ cell subset, relative percentage ([1]; 100 mg/kg): 37.57 | NK- CD3- cell subset, relative percentage ([1]; 100 mg/kg): 53.13 | Non B cell subset, relative percentage ([1]; 100 mg/kg): 80.77 | B cell subset, relative percentage ([1]; 200 mg/kg): 20.10 | CD4+ CD8+ cell subset, relative percentage ([1]; 200 mg/kg): 16.11 | CD4+ CD8- cell subset, relative percentage ([1]; 200 mg/kg): 24.11 | CD4+ CD11+ cell subset, relative percentage ([1]; 200 mg/kg): 0.50 | CD4+ CD11- cell subset, relative percentage ([1]; 200 mg/kg): 39.73 | CD4+ CD45+ cell subset, relative percentage ([1]; 200 mg/kg): 33.01 | CD4+ CD45- cell subset, relative percentage ([1]; 200 mg/kg): 6.22 | CD4- CD8+ cell subset, relative percentage ([1]; 200 mg/kg): 8.57 | CD4- CD8- cell subset, relative percentage ([1]; 200 mg/kg): 37.41 | CD4- CD11+ cell subset, relative percentage ([1]; 200 mg/kg): 5.50 | CD4- CD11- cell subset, relative percentage ([1]; 200 mg/kg): 54.30 | CD4- CD45+ cell subset, relative percentage ([1]; 200 mg/kg): 40.63 | CD4- CD45- cell subset, relative percentage ([1]; 200 mg/kg): 6.74 | CD8+ CD45+ cell subset, relative percentage ([1]; 200 mg/kg): 20.68 | CD8+ CD45- cell subset, relative percentage ([1]; 200 mg/kg): 4.13 | CD8- CD45+ cell subset, relative percentage ([1]; 200 mg/kg): 49.80 | CD8- CD45- cell subset, relative percentage ([1]; 200 mg/kg): 10.39 | NK+ CD3+ cell subset, relative percentage ([1]; 200 mg/kg): 4.57 | NK+ CD3- cell subset, relative percentage ([1]; 200 mg/kg): 8.70 | NK- CD3+ cell subset, relative percentage ([1]; 200 mg/kg): 31.73 | NK- CD3- cell subset, relative percentage ([1]; 200 mg/kg): 55.07 | Non B cell subset, relative percentage ([1]; 200 mg/kg): 79.90 | B cell subset, relative percentage ([1]; 300 mg/kg): 33.67 | CD4+ CD8+ cell subset, relative percentage ([1]; 300 mg/kg): 2.37 | CD4+ CD8- cell subset, relative percentage ([1]; 300 mg/kg): 31.07 | CD4+ CD11+ cell subset, relative percentage ([1]; 300 mg/kg): 0.37 | CD4+ CD11- cell subset, relative percentage ([1]; 300 mg/kg): 29.53 | CD4+ CD45+ cell subset, relative percentage ([1]; 300 mg/kg): 30.67 | CD4+ CD45- cell subset, relative percentage ([1]; 300 mg/kg): 2.77 | CD4- CD8+ cell subset, relative percentage ([1]; 300 mg/kg): 16.67 | CD4- CD8- cell subset, relative percentage ([1]; 300 mg/kg): 49.90 | CD4- CD11+ cell subset, relative percentage ([1]; 300 mg/kg): 5.07 | CD4- CD11- cell subset, relative percentage ([1]; 300 mg/kg): 65.03 | CD4- CD45+ cell subset, relative percentage ([1]; 300 mg/kg): 62.10 | CD4- CD45- cell subset, relative percentage ([1]; 300 mg/kg): 4.47 | CD8+ CD45+ cell subset, relative percentage ([1]; 300 mg/kg): 18.10 | CD8- CD45+ cell subset, relative percentage ([1]; 300 mg/kg): 73.03 | CD8- CD45- cell subset, relative percentage ([1]; 300 mg/kg): 8.83 | NK+ CD3+ cell subset, relative percentage ([1]; 300 mg/kg): 9.97 | NK+ CD3- cell subset, relative percentage ([1]; 300 mg/kg): 11.87 | NK- CD3+ cell subset, relative percentage ([1]; 300 mg/kg): 42.43 | NK- CD3- cell subset, relative percentage ([1]; 300 mg/kg): 35.77 | Non B cell subset, relative percentage ([1]; 300 mg/kg): 66.30 | change of the relative percentage of B cell (in words) ([1]; 300 mg/kg): significant increase | toxicity in vivo (in words) [2]: No apparent toxicity | HPLC AREA ([3]; 0 min): 887657 | HPLC AREA ([3]; 15 min): 354842 | HPLC AREA ([3]; 30 min): 127725 | HPLC AREA ([3]; 45 min): 0 | half-life ([3]; human, human whole blood, 37° C.): ~20 min

Source: US5980913A, “Peptides having immunomodulatory activity” (Biochem Pharma, Inc., priority 1994, dated 1999)
